Reference: ChEMBL document CHEMBL2146395, “[¹⁸F]FE@SNAP-A new PET tracer for the melanin concentrating hormone receptor 1 (MCHR1): microfluidic and vessel-based approaches” (Bioorg Med Chem, 2012)
pKd: −log10 of the molar value. Blank lines part the entries; values can stand above or below the molecule they belong to. Activity calls are given as the source filed them. The rule behind the calls is not given here.

Assays:
[1] = target: T1, Melanin-concentrating hormone receptor 1 (Homo sapiens, UniProt Q99705); test: Binding affinity to human MCHR1 expressed in COS7 cells; format: cell-based, COS-7
T1 sequence (Q99705 whole entry): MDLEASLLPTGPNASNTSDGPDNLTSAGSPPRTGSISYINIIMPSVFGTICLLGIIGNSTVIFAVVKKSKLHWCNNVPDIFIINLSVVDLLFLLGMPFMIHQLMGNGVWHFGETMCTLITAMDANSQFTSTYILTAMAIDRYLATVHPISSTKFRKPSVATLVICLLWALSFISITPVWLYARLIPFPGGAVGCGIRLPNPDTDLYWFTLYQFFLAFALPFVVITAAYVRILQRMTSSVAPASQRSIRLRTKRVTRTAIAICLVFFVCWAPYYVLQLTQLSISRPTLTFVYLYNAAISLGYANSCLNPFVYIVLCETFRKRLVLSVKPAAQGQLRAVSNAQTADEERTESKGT

[2] = Drug degradation in human plasma up to 120 mins; format: ADME, cell-free; conditions: read-out: Drug degradation
carboxyl esterase = test: Drug degradation after 6 hrs in presence of carboxyl esterase; format: physicochemical; conditions: read-out: Drug degradation
[3] = target: T1, Melanin-concentrating hormone receptor 1; test: Binding affinity to human MCHR1 expressed in CHO cell membranes; conditions: tested as the 18F-labelled form

pKd [1]: 9.74
Structure (SMILES): COCC1=C(C(=O)OC)[C@H](c2ccc(F)c(F)c2)N(C(=O)NCCCN2CCC(c3cccc(NC(C)=O)c3)CC2)C(=O)N1

metabolised at 2 h [2]: < 5%
metabolised at 6 h (carboxyl esterase): 20%
Structure (SMILES): COCC1=C(C(=O)OCC[18F])C(c2ccc(F)c(F)c2)N(C(=O)NCCCN2CCC(c3cccc(NC(C)=O)c3)CC2)C(=O)N1 (centres undefined)

Activity [3]: Active
Structure (SMILES): COCC1=C(C(=O)OCCF)C(c2ccc(F)c(F)c2)N(C(=O)NCCCN2CCC(c3cccc(NC(C)=O)c3)CC2)C(=O)N1 (centres undefined)
